“Also recorded” adds a separate entry of the source.
Columns and labels:
[1] = Plasma astaxanthin in dogs fed astaxanthin diets; format: in vivo, dog
Experimental: (§1) Female Beagle dogs (9 to 10 mo old; 8.2±0.2 kg body weight; Covance Research Products Inc., Kalamazoo, Mich.) were randomly assigned (n=14/treatment) to be fed 0, 10, 20, or 40 mg astaxanthin (109 g astaxanthin/kg oleoresin concentrate from Haematococcus pluvialis, astraZanthin™, La Haye Laboratories, Redmond, Wash.) daily for 16 weeks. Astaxanthin was incorporated into a commercial basal diet (The Iams Co., Lewisburg, Ohio.) and fed two times daily (200 g food/d). The diet composition was as follows (g/kg): 85.3 moisture, 275.8 protein, 60.7 ash, 115.0 fat, 9.9 Ca, 9.3 P, 21.3 crude fiber, and 18,914 kJ/kg gross energy; the n-6:n-3 fatty acid ratio was 7.9. Dogs were housed in 2×3 m pens (2 dogs/pen) in a temperature (20 to 22° C.) and light-(14 hour light) controlled facility. Body weight was recorded on week 0, 4, 8, and 16. Blood was collected on wk 0, 6 and 12 for assessing immune function. All dogs were vaccinated (Vanguard 5™, Smithkline Beacham, West Chester, Pa.) twice on week 12 and 14 and blood again taken on week 16 to assess post-vaccination immune responses.

mouse splenocytes = conditions: cultured cell assay (Jyonouchi et al.); cited from earlier work
[2] = system: mammary and bladder tumor; conditions: cited from earlier work
IgG and IgM [3] = assay: Plasma IgG and IgM in cats (ELISA); format: in vivo, cat
Experimental: (§2) Female domestic short hair cats (8 to 9 months old; 3.2±0.04 kg body weight; Liberty Farms, Waverly, N.Y.) were randomly assigned (n=14/diet) to be fed 0, 1, 5, or 10 mg astaxanthin (109 g astaxanthin/kg oleoresin concentrate from Haematococcus pluvialis, astraZanthin™, La Haye Laboratories, Redmond, Wash.) daily (based on an average intake of 90 g food/day) for 12 weeks. Astaxanthin was incorporated into a commercial basal diet (The Iams Co., Lewisburg, Ohio.) and fed ad libitum. The diet composition was as follows (g/kg): 63.1 moisture, 350.6 protein, 62.7 ash, 213.6 fat, 10.0 Ca, 7.6 P, and 7.1 crude fiber, 21,707 kJ/kg gross energy; the n-6:n-3 fatty acid ratio was 9.9. Cats were housed in a temperature (20 to 22° C.) and light-controlled (14 hour light) facility and body weights were determined at weeks 0, 4, 8 and 12. Blood was collected at week 0 and 8 to assess immune function. To assess the dietary effects of astaxanthin on immune response after an antigenic challenge, all cats were vaccinated (Felocell™, Pfizer, N.Y.) two times (weeks 8 and 10) and blood was collected at week 12 to measure the same immune parameters.
IgG and IgM. Plasma concentrations of IgG (sheep anti-IgG; sensitivity=16 μg/L) and IgM (goat anti-IgM; sensitivity=31 μg/L) were analyzed by ELISA using a commercial kit (Bethyl Lab., Inc., Montgomery, Tex.).

[4] = Body weight of cats fed astaxanthin; format: in vivo, cat
Experimental: as §2

lipid peroxidation = assay: Lipid peroxidation in dogs; format: in vivo, dog
IgG and IgM [5] = assay: Plasma IgG and IgM in dogs (ELISA); format: in vivo, dog
From the text: as §1, with “([…]” for “(n=14/treatment) to be fed 0, 10, 20, or 40 mg astaxanthin (109 g astaxanthin/kg oleoresin”
IgG and IgM. Concentrations of IgG (sheep anti-dog IgG; sensitivity=16 micrograms/L) and IgM (goat anti-dog IgM; sensitivity=31 micrograms/L) in plasma were analyzed by ELISA using a commercial kit (Bethyl Lab., Inc., Montgomery, Tex.).

[6] = system: peripheral blood mononuclear cell (PBMC); assay: Lymphoproliferation in dogs (whole blood cultures); format: in vivo, dog
Experimental: Lyniphoproliferation. The proliferation response of peripheral blood mononuclear cell (PBMC) to PHA (2 and 10 mg/L final concentration), concanavalin A (Con A; 1 and 5 mg/L), and pokeweed mitogen (PWM; 0.25 and 1.25 mg/L) was assessed on week 0, 6, 12 and 16 using whole blood cultures (Chew et al., 2000). Whole blood was cultured in order to mimic in vivo conditions.

[7] = system: cutaneous delayed-type hypersensitivity (DTH); assay: Delayed-type hypersensitivity (skin induration) in dogs; format: in vivo, dog
Experimental: Female Beagle dogs (9 to 10 mo old; 8.2±0.2 kg body weight; Covance Research Products Inc., Kalamazoo, Mich.) were randomly assigned (n=14/treatment) to be fed 0, 10, 20, or 40 mg astaxanthin (109 g astaxanthin/kg oleoresin concentrate from Haematococcus pluvialis, astraZanthin™, La Haye Laboratories, Redmond, Wash.) daily for 16 weeks. Astaxanthin was incorporated into a commercial basal diet (The Iams Co., Lewisburg, Ohio.) and fed two times daily (200 g food/d). […] Blood was collected on wk 0, 6 and 12 for assessing immune function. All dogs were vaccinated (Vanguard 5™, Smithkline Beacham, West Chester, Pa.) twice on week 12 and 14 and blood again taken on week 16 to assess post-vaccination immune responses.
On week 12 (before vaccination) and 16 (after vaccination), all dogs were injected intradermally with 100 microliters of (1) saline (8.5 g/L; negative control), (2) an attenuated polyvalent vaccine containing canine distemper virus, adenovirus type-2, parainfluenza virus and parvovirus (undiluted; Vanguard 5™, Smithkline Beacham, West Chester, Pa.), and (3) phytohemagglutinin (PHA, 0.5 g/L) as previously described (Chew et al., 2000) to assess cutaneous delayed-type hypersensitivity (DTH). Skin induration was measured at 0, 24, 48 and 72 hours post-injection.

C-reactive protein (CRP) = assay: Plasma C-reactive protein in dogs; format: in vivo, dog
Experimental: C-Reactive protein. Changes in acute phase proteins were assessed in plasma by measuring the C-reactive protein (CRP) concentrations using horseradish peroxidase-labeled anti-canine CRP in a solid-phase sandwich immunoassay (Tri Delta Diagnostics, Morris Plains, N.J.).

[8] = post-vaccination week 12, 10 mg

## CC1=C(/C=C/C(C)=C/C=C/C(C)=C/C=C/C=C(C)/C=C/C=C(C)/C=C/C2=C(C)C(=O)C(O)CC2(C)C)C(C)(C)CC(O)C1=O (stereo not drawn) [astaxanthin, 3,3′-dihydroxy-beta, beta-carotene-4,4′-dione]
[1]; all supplemented dogs
  time at which maximal blood concentrations were observed: ≤ 6 wk
[1]; supplemented dogs, through week 16
  plasma astaxanthin concentration: increased in a dose-dependent manner
Mouse splenocytes
  in vitro antibody response of mouse splenocytes to T-dependent antigens: increase in vitro antibody response
[2]; rodents (Chew et al., 1999a)
  mammary tumor growth: inhibited
[2]; rodents (Tanaka et al., 1994)
  bladder tumor growth: inhibited
IgG and IgM [3]; post-vaccination week 12, 5 mg
  plasma IgG concentration: only those fed 5 mg astaxanthin were significant
  plasma IgM concentration: only those fed 5 mg astaxanthin were significant
IgG and IgM [3]; [8]
  plasma IgG concentration: still numerically higher
  plasma IgM concentration: still numerically higher
IgG and IgM [3]; week 8, 10 mg
  plasma IgG concentration: higher
  plasma IgM concentration: higher
[4]; cats fed 0, 1, 5 or 10 mg daily, 12 weeks
  body weight between treatments: not significantly different between treatment
[4]; week 12, average over all diets
  body weight averaged: 3.22 ± 0.06 kg
Lipid peroxidation
  lipid peroxidation: reduced lipid peroxidation
IgG and IgM [5]; 20 mg, post-vaccination week 16
  plasma IgG concentration: higher; also recorded: highest concentrations of IgG and IgM
IgG and IgM [5]; 20 mg, week 12
  plasma IgG concentration: higher
IgG and IgM [5]; 20 mg, week 16
  plasma IgM concentration: significantly higher IgM concentrations; also recorded: highest concentrations of IgG and IgM
IgG and IgM [5]; higher (30 mg) dietary astaxanthin
  IgG production: did not produce the same stimulation
[6]; 20 mg, week 12
  con A-induced PBMC proliferation: higher con A-induced PBMC proliferation than un-supplemented dogs; also recorded: highest blastogenic response
[6]; all time periods
  PHA-stimulated PBMC proliferation: did not influence
  PWM-stimulated PBMC proliferation: did not influence
[7]; before vaccination
  time after intradermal challenge at which skin induration response was observed: 48 h
[7]; nonspecific antigen
  DTH response to PHA: No similar response was observed; also recorded: but not to PHA
[7]; post-vaccination
  time after intradermal challenge at which skin induration response was observed: 24 h
[7]; versus β-carotene and lutein in dogs
  DTH response compared with other carotenoids previously investigated: heightened DTH response
[7]; wk 0 and 8
  skin induration response to saline, PHA or vaccine: did not significantly influence
[7]; wk 12 (before vaccination), dogs fed 10, 20 and 30 mg (10 to 40 mg)
  DTH response to intradermal vaccine challenge: significant DTH response to vaccine; also recorded: higher DTH response at 38 and 72 h; also recorded: increased delayed-type hypersensitivity (DTH) response
[7]; wk 16, after vaccination on wk 12 and 14
  DTH response to intradermal vaccine challenge: observed earlier (at 24 and 38 h); also recorded: similarly enhanced
C-reactive protein (CRP); post-vaccination, week 16
  plasma C-reactive protein concentrations: decreased plasma C-reactive protein concentrations; also recorded: lower concentrations of circulating CRP
C-reactive protein (CRP); through week 12
  plasma CRP concentrations between diets: similar
C-reactive protein (CRP); through week 12, average over diets
  plasma CRP concentration averaged: 4.48 mg/L

— patent US20040151761A1, “Methods and compositions utilizing astaxanthin” (priority 2003, published 2004)
